What was measured:
Sapajus apella [1] = experiment: Iron excretion in iron-overloaded Cebus apella feces at 75 umol/kg, po after 48 hrs by flame absorption spectroscopy analysis relative to control; assay type: functional
Sapajus apella [2] = experiment: Iron excretion in iron-overloaded Cebus apella urine at 75 umol/kg, po after 48 hrs by flame absorption spectroscopy analysis relative to control; assay type: functional
Sapajus apella [3] = experiment: Iron clearing effect in iron-overloaded Cebus apella at 75 umol/kg, po after 48 hrs by flame absorption spectroscopy analysis; assay type: functional
Rattus norvegicus [4] = experiment: Iron excretion in noniron-overloaded bile duct cannulated Sprague-Dawley rat urine at 150 umol/kg, po after 24 hrs relative to control; assay type: functional
Rattus norvegicus [5] = experiment: Iron excretion in noniron-overloaded bile duct cannulated Sprague-Dawley rat bile at 150 umol/kg, po after 24 hrs relative to control; assay type: functional
Rattus norvegicus [6] = experiment: Iron clearing effect in noniron-overloaded bile duct cannulated Sprague-Dawley rat at 150 umol/kg, po after 24 hrs; assay type: functional
Rattus norvegicus [7] = experiment: Iron clearing effect in noniron-overloaded bile duct cannulated Sprague-Dawley rat assessed as maximum iron clearance time at 150 umol/kg, po; assay type: functional
Rattus norvegicus [8] = assay type: toxicity, organism-based, Urine; conditions: in vivo, po, 168 h
Rattus norvegicus [9] = assay type: toxicity, organism-based; conditions: in vivo, po, 168 h
Rattus norvegicus [10] = experiment: Iron clearing effect in noniron-overloaded bile duct cannulated Sprague-Dawley rat assessed as maximum iron clearance time at 300 umol/kg, po; assay type: functional
Sapajus apella [11] = experiment: Iron excretion in iron-overloaded Cebus apella feces at 150 umol/kg, po after 48 hrs by flame absorption spectroscopy analysis relative to control; assay type: functional
Sapajus apella [12] = experiment: Iron excretion in iron-overloaded Cebus apella urine at 150 umol/kg, po after 48 hrs by flame absorption spectroscopy analysis relative to control; assay type: functional
Sapajus apella [13] = experiment: Iron clearing effect in iron-overloaded Cebus apella at 150 umol/kg, po after 48 hrs by flame absorption spectroscopy analysis; assay type: functional
[14] = Octanol-water apparent partition coefficient, log D of the compound at pH 7.4; assay type: physicochemical; conditions: for logD: read-out: LogD7.4
Rattus norvegicus [15] = experiment: Iron excretion in noniron-overloaded bile duct cannulated Sprague-Dawley rat urine at 300 umol/kg, po after 48 hrs relative to control; assay type: functional
Rattus norvegicus [16] = experiment: Iron excretion in noniron-overloaded bile duct cannulated Sprague-Dawley rat bile at 300 umol/kg, po after 48 hrs relative to control; assay type: functional
Rattus norvegicus [17] = experiment: Iron clearing effect in noniron-overloaded bile duct cannulated Sprague-Dawley rat at 300 umol/kg, po after 48 hrs; assay type: functional
Sapajus apella [18] = experiment: Iron excretion in iron-overloaded Cebus apella feces at 75 umol/kg, sc after 48 hrs by flame absorption spectroscopy analysis relative to control; assay type: functional
Sapajus apella [19] = experiment: Iron excretion in iron-overloaded Cebus apella urine at 75 umol/kg, sc after 48 hrs by flame absorption spectroscopy analysis relative to control; assay type: functional
Rattus norvegicus [20] = experiment: Toxicity in rat assessed as mortality at 384 umol/kg, po qd for 10 days; assay type: organism-based; conditions: in vivo, 240 h
Rattus norvegicus [21] = assay type: toxicity, organism-based, Urine; conditions: in vivo, po, 168 h; remark: listed apart in the source
Rattus norvegicus [22] = assay type: toxicity, organism-based, Serum; conditions: in vivo, po, 168 h
Rattus norvegicus [23] = assay type: toxicity, organism-based, Blood; conditions: in vivo, po, 168 h

Structure (SMILES)	Activity (Sapajus apella [1])	Activity (Sapajus apella [2])	Activity (Sapajus apella [3])	Activity (Rattus norvegicus [9])	Time (Rattus norvegicus [10])	logD [14]	also measured
C[C@]1(C(=O)[O-])CSC(c2ccccc2O)=N1.[Na+]	76%	24%	21.5%	–	–	–	Activity (Rattus norvegicus [4]): 0%; Activity (Rattus norvegicus [5]): 100%; Activity (Rattus norvegicus [6]): 2.7%; Time (Rattus norvegicus [7]): 6 h
C[C@]1(C(=O)[O-])CSC(c2ccc(O)cc2O)=N1.[Na+] [DEFERITRIN SODIUM]	–	–	–	Non-toxic	3 h	–	Activity (Rattus norvegicus [8]): 69 ng/kg/day; Activity (Sapajus apella [11]): 88%; Activity (Sapajus apella [12]): 12%; Activity (Sapajus apella [13]): 16.8%
COCCOCCOc1cccc(C2=N[C@@](C)(C(=O)[O-])CS2)c1O.[Na+]	86%	14%	22.5%	–	6 h	-0.96	Activity (Rattus norvegicus [15]): 1%; Activity (Rattus norvegicus [16]): 99%; Activity (Rattus norvegicus [17]): 15.1%
COCCOCCOc1ccnc(C2=N[C@@](C)(C(=O)[O-])CS2)c1O.[Na+]	40%	60%	–	Non-toxic	6 h	-1.38	Activity (Sapajus apella [18]): 64%; Activity (Sapajus apella [19]): 36%
COCCOCCOc1ccc(C2=N[C@@](C)(C(=O)[O-])CS2)c(O)c1.[Na+]	83%	17%	28.7%	Non-toxic	12 h	–	Activity (Rattus norvegicus [20]): Non-toxic; LogD7.4 [14]: -0.89; Activity (Rattus norvegicus [15]): 3%; Activity (Rattus norvegicus [16]): 97%; Activity (Rattus norvegicus [17]): 26.7%
COCCOCCOc1cnc(C2=N[C@@](C)(C(=O)[O-])CS2)c(O)c1.[Na+]	63%	37%	–	Non-toxic	6 h	-1.59	–
C[C@]1(C(=O)[O-])CSC(c2ncc(O)cc2O)=N1.[Na+]	58%	42%	10%	Non-toxic	6 h	-1.68	–
C[C@]1(C(=O)[O-])CSC(c2ncccc2O)=N1.[Na+] [DESFERRITHIOCIN SODIUM]	–	–	–	Toxic	–	–	Activity (Rattus norvegicus [21]): 192 ng/kg/day; Activity (Rattus norvegicus [8]): 1528 ng/kg/day; Activity (Rattus norvegicus [22]): 5.1 mg/dL; Activity (Rattus norvegicus [23]): 139 mg/dL; Activity (Sapajus apella [11]): 78%; Activity (Sapajus apella [12]): 22%; Activity (Sapajus apella [13]): 16.1%; Activity (Rattus norvegicus [4]): 7%; Activity (Rattus norvegicus [5]): 93%; Activity (Rattus norvegicus [6]): 5.5%; Time (Rattus norvegicus [7]): 3 h

— ChEMBL document CHEMBL2163198, “Substituent effects on desferrithiocin and desferrithiocin analogue iron-clearing and toxicity profiles” (J Med Chem, 2012)
